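A five-concentration, 48-hour dose response in 96-well plates underlies each endpoint, interpolated linearly between surrounding concentrations. TGI denotes the concentration required for complete inhibition of growth.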
How the values were obtained:
Assay in all cases: growth of human tumour cells (NCI), 48 h
COLO 205 colon = system: COLO 205 colon
HCC-2998 colon = system: HCC-2998 colon
HOP-92 NSCLC = system: HOP-92 NSCLC
M14 melanoma = system: M14 melanoma
MDA-MB-231 breast = system: MDA-MB-231 breast
MDA-N = system: MDA-N
OVCAR-5 ovarian = system: OVCAR-5 ovarian
RXF 393 renal = system: RXF 393 renal
SK-MEL-2 melanoma = system: SK-MEL-2 melanoma
SN12C renal = system: SN12C renal
UO-31 renal = system: UO-31 renal
OVCAR-8 ovarian = system: OVCAR-8 ovarian
SF-539 CNS = system: SF-539 CNS

Compound	TGI (COLO 205 colon)	TGI (HCC-2998 colon)	TGI (HOP-92 NSCLC)	TGI (M14 melanoma)	TGI (MDA-MB-231 breast)	TGI (MDA-N)	TGI (OVCAR-5 ovarian)	TGI (RXF 393 renal)	TGI (SK-MEL-2 melanoma)	TGI (SN12C renal)	TGI (UO-31 renal)	TGI (OVCAR-8 ovarian)	TGI (SF-539 CNS)
O=C1/C(=C\c2ccc(O)cc2)CCC/C1=C/c1ccc(Cl)c(Cl)c1	3.67 µM	5.94 µM	28.9 µM	5.44 µM	7.55 µM	8.01 µM	34.3 µM	5.8 µM	36.9 µM	10.4 µM	5.6 µM		
CNC1=C(C)C(=O)C(=O)C([C@H](C)CCC=C(C)C)=C1O	> 73.7 µM	99.3 µM	> 100 µM	> 100 µM	> 100 µM	> 100 µM	> 100 µM	> 100 µM	81.9 µM	> 100 µM	49.7 µM	> 60.9 µM	
O=C1/C(=C/c2ccccc2O)N=C(c2ccccc2)N1C1Nc2cc3c(cc2S1)NC(N1C(=O)/C(=C/c2ccccc2O)N=C1c1ccccc1)S3 (centres undefined)		> 100 µM	15 µM	> 100 µM	> 100 µM	> 100 µM	> 100 µM	70 µM	> 100 µM		> 100 µM	> 100 µM	> 100 µM
CCc1c2c([nH]c(=S)c1C#N)CCC2	> 100 µM	> 100 µM	> 100 µM	> 100 µM	> 100 µM	> 100 µM	> 100 µM	> 100 µM	> 100 µM		> 100 µM	> 100 µM	
[N-]=[N+]=Nc1ccccc1C(=O)N1C(=O)c2ccccc2C(=O)N(C(=O)c2ccccc2N=[N+]=[N-])c2ccccc21	> 100 µM	> 100 µM	83.5 µM	> 100 µM	> 100 µM	> 100 µM	> 100 µM	76.6 µM	> 100 µM	> 100 µM	> 100 µM	> 100 µM	> 100 µM
O=C1c2cc(Cl)ccc2-n2cnnc2C2CSCN12 (centres undefined)	> 100 µM	> 100 µM		> 100 µM	> 100 µM	> 100 µM	> 100 µM	> 100 µM	> 100 µM	> 100 µM	> 100 µM	> 100 µM	
C=CCNC(=O)NC(=O)CSC1=NNC2(C(=O)N1)c1ccccc1-c1ccccc12	> 10 µM	> 10 µM	> 10 µM	> 10 µM	> 10 µM	> 10 µM	> 10 µM	> 10 µM		> 10 µM	> 10 µM	> 10 µM	> 10 µM
Cc1csc2[n+]1C(=O)/C(=C\c1ccc([N+](=O)[O-])cc1)S2	39.9 µM	43.9 µM	47.7 µM	> 100 µM	68.6 µM	75.2 µM	> 100 µM	82.6 µM	63.3 µM	99.3 µM	39.3 µM	> 100 µM	> 100 µM
CCOC(CN(C)C(=O)Nc1cccc2ccccc12)OCC	> 10 µM	> 10 µM	> 10 µM	> 10 µM	> 10 µM	> 10 µM		> 10 µM	> 10 µM	> 10 µM	> 10 µM	> 10 µM	> 10 µM
Cc1ccc2c(c1)[nH]c(=S)n2/C=C1\C(=O)Oc2ccccc2C1=O	> 100 µM	> 100 µM	71.5 µM	> 100 µM	> 100 µM	> 100 µM	> 100 µM	> 100 µM	> 100 µM	> 100 µM	> 100 µM	> 100 µM	> 100 µM
COC(=O)/C=C(/C)n1nc2ccccc2n1	> 100 µM	> 100 µM		> 100 µM	> 100 µM	> 100 µM	> 100 µM	> 100 µM	> 100 µM	> 100 µM	> 100 µM	> 100 µM	
O=C1C(Cl)C2(CC(/C=C/c3ccccc3Cl)=NN2c2cccc(S(=O)(=O)O)c2)N1c1nc2ccccc2s1 (centres undefined)	> 100 µM	> 100 µM	> 100 µM	> 100 µM	> 100 µM	> 100 µM	> 100 µM	> 100 µM	> 100 µM	> 100 µM	16.3 µM	> 100 µM	37.6 µM
CCOP(=O)(OCC)/C(C#N)=C/c1ncc[nH]1	> 100 µM	> 100 µM	> 100 µM	> 100 µM	> 100 µM	> 100 µM	> 100 µM	> 100 µM	> 100 µM	> 100 µM	> 100 µM	> 100 µM	72.9 µM
C=CCN1C(=O)/C(=C/c2ccc(OC)cc2)N=C1SC/C=C/C	> 100 µM	> 100 µM	93.8 µM	> 100 µM	> 100 µM	> 100 µM	> 100 µM	87 µM	> 100 µM	80.6 µM	> 100 µM	80.1 µM	> 100 µM
C=CCNC1=C2C[C@@H](C)C[C@@H](OC)[C@H](OC(=O)CCN)[C@H](C)/C=C(\C)[C@@H](OC(N)=O)[C@H](OC)/C=C\C=C(/C)C(=O)NC(=CC1=O)C2=O	10.1 µM	3.61 µM	16.9 µM	17.3 µM	17.7 µM	11.2 µM	23.3 µM	15.1 µM	7.12 µM	16.2 µM	24.2 µM	18.4 µM	
CS(=O)(=O)c1nc(-c2cc3c(c(S(C)(=O)=O)n2)CCC3)cc2c1CCCCC2	> 100 µM	> 100 µM		> 100 µM	> 100 µM	> 100 µM	> 100 µM	39.3 µM	63.1 µM	> 100 µM	> 100 µM	> 100 µM	
Clc1ccc(NCc2nnc(CCCCCCCCc3nnc(CNc4ccc(Cl)cc4)o3)o2)cc1	> 100 µM	> 100 µM	> 100 µM	> 100 µM	> 100 µM	> 100 µM	> 100 µM	> 100 µM	> 100 µM	> 100 µM	> 100 µM	> 100 µM	
